Biological target: rgH1N1 NA (Influenza A virus, UniProt Q6DPL2)
Format: biochemical, reverse-genetic influenza A virus rgH1N1

Sequence of rgH1N1 NA (Q6DPL2 whole entry, looked up): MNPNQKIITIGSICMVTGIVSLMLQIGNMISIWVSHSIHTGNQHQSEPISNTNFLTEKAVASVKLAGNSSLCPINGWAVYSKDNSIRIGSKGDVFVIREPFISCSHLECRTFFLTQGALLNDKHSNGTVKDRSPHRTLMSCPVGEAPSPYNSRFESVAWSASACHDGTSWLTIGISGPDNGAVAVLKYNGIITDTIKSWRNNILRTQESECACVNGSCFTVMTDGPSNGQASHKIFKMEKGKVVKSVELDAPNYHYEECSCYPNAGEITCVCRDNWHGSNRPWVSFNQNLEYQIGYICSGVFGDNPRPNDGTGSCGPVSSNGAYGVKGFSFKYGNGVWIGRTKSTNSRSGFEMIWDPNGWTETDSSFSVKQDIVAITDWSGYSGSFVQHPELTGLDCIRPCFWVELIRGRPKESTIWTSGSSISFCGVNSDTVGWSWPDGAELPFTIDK

Question: `CC(=O)N[C@@H]1[C@@H](O)C[C@](Oc2ccc3c(C)cc(=O)oc3c2)(C(=O)O)O[C@H]1C(O)[C@H](O)CO` (stereo partly drawn) [MUNANA, 2′-(4-methylumbelliferyl)-α-D-N-acetylneuraminic acid] was tested. Which Km did it give?
Answer: The Km was 18 ± 2 µM.
